Measured values: patent US20240360126A1, “PYRAZOLO[3,4-B]PYRIDINE COMPOUNDS FOR THE TREATMENT OF AUTOIMMUNE DISEASE” (Hoffmann-La Roche Inc., priority 2021, published 2024)
Blank lines part the entries; values can stand above or below the molecule they belong to.

Key:
TLR9 = target: T1, TLR9 (Homo sapiens, UniProt Q9NR96); assay: Human PBMC cell-based assay; set-up: These cells express TLR7, TLR8, or TLR9, and therefore are natural responders to respective ligand stimulation; endogenous in cells; host or cells: human PBMC from healthy donor whole blood; conditions: CpG ODN 2216 at 1 μM, read-out: hPBMC/TLR9 IC50
T1 sequence (Q9NR96 26-1032): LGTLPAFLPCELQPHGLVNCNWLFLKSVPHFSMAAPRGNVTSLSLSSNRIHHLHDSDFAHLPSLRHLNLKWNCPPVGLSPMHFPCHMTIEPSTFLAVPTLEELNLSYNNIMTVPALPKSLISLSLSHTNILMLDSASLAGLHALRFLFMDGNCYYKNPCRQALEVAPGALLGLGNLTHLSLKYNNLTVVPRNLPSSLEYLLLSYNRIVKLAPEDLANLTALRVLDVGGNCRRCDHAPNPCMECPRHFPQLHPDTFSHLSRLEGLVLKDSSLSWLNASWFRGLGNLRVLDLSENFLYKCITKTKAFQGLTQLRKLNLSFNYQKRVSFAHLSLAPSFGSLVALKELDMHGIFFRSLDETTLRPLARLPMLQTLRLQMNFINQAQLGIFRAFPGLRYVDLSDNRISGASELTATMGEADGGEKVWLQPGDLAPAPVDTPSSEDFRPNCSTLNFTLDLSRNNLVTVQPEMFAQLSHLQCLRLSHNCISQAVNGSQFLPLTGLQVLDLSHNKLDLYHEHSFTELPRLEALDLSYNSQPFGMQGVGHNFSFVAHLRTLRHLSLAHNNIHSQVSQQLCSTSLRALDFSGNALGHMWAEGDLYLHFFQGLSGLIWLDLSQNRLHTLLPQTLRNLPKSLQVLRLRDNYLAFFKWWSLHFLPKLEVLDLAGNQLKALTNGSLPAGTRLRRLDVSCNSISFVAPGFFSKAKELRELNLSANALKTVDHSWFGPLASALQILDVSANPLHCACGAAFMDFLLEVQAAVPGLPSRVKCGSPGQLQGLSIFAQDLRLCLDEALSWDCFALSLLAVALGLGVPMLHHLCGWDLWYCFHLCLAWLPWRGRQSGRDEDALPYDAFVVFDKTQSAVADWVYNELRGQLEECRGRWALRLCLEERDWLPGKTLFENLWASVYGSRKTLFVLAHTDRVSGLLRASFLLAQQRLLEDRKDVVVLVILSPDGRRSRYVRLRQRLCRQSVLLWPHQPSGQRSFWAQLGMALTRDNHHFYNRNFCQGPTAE
Source text: Unlike the HEK reporter cell lines, human peripheral blood mononuclear cell (PBMC) represents primary human immune cells in blood mainly consisting of lymphocytes, monocytes, and dendritic cells. These cells express TLR7, TLR8, or TLR9, and therefore are natural responders to respective ligand stimulation. Upon activation of these TLRs, PBMCs secrete similar cytokines and chemokines in vitro and in vivo, and therefore the in vitro potency of a TLR7/8/9 antagonist in human PBMC is readily translatable to its pharmacodynamics response in vivo.
Human peripheral blood mononuclear cells (PBMC) were isolated from freshly-drawn lithium-heparinized (Lithium Heparin Plus blood Collection tube, BD Vacutainer®) healthy donor whole blood by density gradient (Ficoll-Paque™ PLUS, GE Healthcare life Sciences). Briefly, […] was diluted with 25 mL PBS (without Ca^2+, Mg^2+) in a 50 mL conical tube with porous barrier (Leucosep tube, Greiner bio-one), where 15.5 mL Ficoll-Paque was under laid after spinning. Tubes were centrifuged for 20 minutes at 800×g (1946 rpm) with the brake in the off position, and PBMC were collected from the buffy coat. Cells were then washed twice in PBS, and red blood cells were lysed by suspension in 2 mL (Red Blood Cell Lysis Buffer, Alfa Aesar) for 5-10 minutes at room temperature. After a final wash in PBS, PBMC were resuspended at a final concentration of 2×10^6 cells/mL in RPMI-1640 media with GlutaMAX™ (Gibco) supplemented with 10% Fetal Bovine Serum (Sigma) and plated at 150 μL/well (3×10^5 cells/well) in tissue culture treated round bottom 96-well plates (Corning Incorporated). Antagonist compounds (compounds of this invention) solubilized and serial diluted in 100% DMSO were added in duplicate to cells to yield a final concentration of 1% DMSO (v/v). PBMC were incubated with antagonist compounds for 30 minutes at 37° C., 5% CO2 before adding various TLR agonist reagents in 48 μL complete media per well as follows (final concentrations indicated): CpG ODN 2216 (InvivoGen) at 1 μM for TLR9, ORN 06/LyoVec (InvivoGen) at […] for TLR8 and R848 (InvivoGen) at 1 μg/mL for TLR7 and TLR8. PBMC were incubated overnight at 37° C. with 5% C02. Cell culture supernatants were collected, and levels of various human cytokines were assessed by Luminex assay (ProcartaPlex™ Multiplex Immunoassay, Invitrogen) or ELISA procedure according to the manufacturer's recommended protocol (eBioscience, ThermoFisher Scientific). Viability of the cells was also checked with Cell Viability Assay (CellTiter Glo® Luminescent Cell Viability Assay, Promega).

hERG K+ channel = target: T2, hERG K+ channel (Homo sapiens, UniProt Q12809); assay: hERG channel inhibition assay (patch-clamp, CHO-hERG cells); type: cell-based; conditions: for IC50 / IC20: CHO-hERG cells, whole-cell patch-clamp; for IC20: human, CHO cells stably expressing hERG; for hERG IC20/TLR7 IC50 / hERG IC20/TLR8 IC50 / hERG IC20/TLR9 IC50: safety ratio
T2 construct: expressed in transfected cells; host or cells: CHO (Chinese hamster ovary)
Procedure: The hERG K^+ channels were cloned in humans and stably expressed in a CHO (Chinese hamster ovary) cell line. CHOhERG cells were used for patch-clamp (voltage-clamp, whole-cell) experiments. Cells were stimulated by a voltage pattern to activate hERG channels and conduct IKhERG Currents (rapid delayed outward rectifier potassium current of the hERG channel). After the cells were stabilized for a few minutes, the amplitude and kinetics of IKhERG were recorded at a stimulation frequency of 0.1 Hz (6 bpm). Thereafter, the test compound was added to the preparation at increasing concentrations. For each concentration, an attempt was made to reach a steady-state effect, usually, this was achieved within 3-10 min at which time the next highest concentration was applied. The amplitude and kinetics of IKhERG are recorded in each concentration of the drug which were compared to the control values (taken as 100%). (references: Redfe W S, Carlsson L, Davis A S, Lynch W G, MacKenzie I, Palethorpe S, Siegl P K, Strang I, Sullivan A T, Wallis R, Camm A J, Hammond T G. 2003; Relationships between preclinical cardiac electrophysiology, clinical QT interval prolongation and torsade de pointes for a broad range of drugs: evidence for a provisional safety margin in drug development. Cardiovasc. Res. 58:32-45, Sanguinetti M C, Tristani-Firouzi M. 2006; hERG potassium channels and cardiac arrhythmia. Nature 440:463-469, Webster R, Leishman D, Walker D. 2002; Towards a drug concentration effect relationship for QT prolongation and torsades de pointes. Curr. Opin. Drug Discov. Devel. 5:116-26).

T2 sequence (Q12809 whole entry): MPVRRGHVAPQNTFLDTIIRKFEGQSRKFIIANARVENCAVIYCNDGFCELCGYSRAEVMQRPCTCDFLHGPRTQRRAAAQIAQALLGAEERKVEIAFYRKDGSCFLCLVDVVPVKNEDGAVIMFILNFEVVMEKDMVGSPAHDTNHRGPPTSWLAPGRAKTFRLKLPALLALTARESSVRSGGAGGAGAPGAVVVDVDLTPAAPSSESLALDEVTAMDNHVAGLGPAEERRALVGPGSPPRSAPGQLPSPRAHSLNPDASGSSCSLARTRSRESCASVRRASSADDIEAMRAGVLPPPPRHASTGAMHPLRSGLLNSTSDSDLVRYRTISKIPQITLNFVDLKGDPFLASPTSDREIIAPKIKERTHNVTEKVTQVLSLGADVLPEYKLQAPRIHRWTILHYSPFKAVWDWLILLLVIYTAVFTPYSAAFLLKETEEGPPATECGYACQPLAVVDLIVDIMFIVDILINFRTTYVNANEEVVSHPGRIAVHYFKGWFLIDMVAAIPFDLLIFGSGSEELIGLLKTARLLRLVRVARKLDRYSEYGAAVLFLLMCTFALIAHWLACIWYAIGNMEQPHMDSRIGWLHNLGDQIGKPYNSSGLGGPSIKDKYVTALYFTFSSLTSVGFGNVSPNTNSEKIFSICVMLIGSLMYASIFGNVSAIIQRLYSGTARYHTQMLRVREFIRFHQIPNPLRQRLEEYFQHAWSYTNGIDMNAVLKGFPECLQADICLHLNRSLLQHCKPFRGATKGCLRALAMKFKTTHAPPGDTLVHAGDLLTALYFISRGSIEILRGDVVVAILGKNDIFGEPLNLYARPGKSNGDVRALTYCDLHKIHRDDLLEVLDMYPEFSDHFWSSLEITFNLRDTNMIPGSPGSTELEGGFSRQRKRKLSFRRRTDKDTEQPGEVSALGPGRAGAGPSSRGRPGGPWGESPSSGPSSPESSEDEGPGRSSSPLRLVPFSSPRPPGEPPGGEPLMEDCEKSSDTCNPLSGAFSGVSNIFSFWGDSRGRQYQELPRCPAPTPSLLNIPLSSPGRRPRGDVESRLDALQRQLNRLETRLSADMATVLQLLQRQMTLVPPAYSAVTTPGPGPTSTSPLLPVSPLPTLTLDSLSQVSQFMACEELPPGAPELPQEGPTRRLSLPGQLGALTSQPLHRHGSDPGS

- IC50 (TLR9): 0.848 µM
Compound: Cc1cc(N2CCC(c3cnc(N4CCNCC4)cc3C)[C@H](C)C2)c2cnn(C)c2n1 (single isomer, unassigned) [Example 21, 1,6-dimethyl-4-[trans-3-methyl-4-(4-methyl-6-piperazin-1-yl-3-pyridyl)-1-piperidyl]pyrazolo[3,4-b]pyridine]

- IC50 (TLR9): 0.32 µM
Compound: Cc1cc(N2CCC(c3ncc(N4CCNCC4)cc3C)[C@H](C)C2)c2cnn(C)c2n1 (single isomer, unassigned) [Example 25, 1,6-dimethyl-4-[trans-3-methyl-4-(3-methyl-5-piperazin-1-yl-2-pyridyl)-1-piperidyl]pyrazolo[3,4-b]pyridine]
- IC50 (hERG K+ channel): > 20 µM
- IC20 (hERG K+ channel): > 10 µM
- hERG IC20/TLR7 IC50 (hERG K+ channel): >1111.1
- hERG IC20/TLR8 IC50 (hERG K+ channel): >1428.6
- hERG IC20/TLR9 IC50 (hERG K+ channel): >102.0

Compound: Cc1cc(N2CCC(c3ccc(N4CCNCC4)cc3)CC2)c2cnn(C)c2n1 [Example 1, 1,6-dimethyl-4-[4-(4-piperazin-1-ylphenyl)-1-piperidyl]pyrazolo[3,4-b]pyridine]
- IC50 (hERG K+ channel): > 10 µM
- IC20 (hERG K+ channel): 4 µM
- hERG IC20/TLR7 IC50 (hERG K+ channel): 75.5
- hERG IC20/TLR8 IC50 (hERG K+ channel): 333.3
- hERG IC20/TLR9 IC50 (hERG K+ channel): 14.5

- IC50 (TLR9): 0.47 µM
Compound: Cc1cc(N2CCC(c3ccc(N4CCNCC4)cn3)CC2)c2cnn(C)c2n1 [Example 2, 1,6-dimethyl-4-[4-(5-piperazin-1-yl-2-pyridyl)-1-piperidyl]pyrazolo[3,4-b]pyridine]
- IC50 (hERG K+ channel): > 20 µM
- IC20 (hERG K+ channel): > 10 µM
- hERG IC20/TLR7 IC50 (hERG K+ channel): >370.4
- hERG IC20/TLR8 IC50 (hERG K+ channel): >476.2
- hERG IC20/TLR9 IC50 (hERG K+ channel): >70.4

- IC50 (TLR9): 0.617 µM
Compound: Cc1cc(N2CCNCC2)ncc1C1CCN(c2ccnc3c2cnn3C)CC1 [Example 6, 1-methyl-4-[4-(4-methyl-6-piperazin-1-yl-3-pyridyl)-1-piperidyl]pyrazolo[3,4-b]pyridine]
- IC50 (hERG K+ channel): > 10 µM
- IC20 (hERG K+ channel): 4.4 µM
- hERG IC20/TLR7 IC50 (hERG K+ channel): 628.6
- hERG IC20/TLR8 IC50 (hERG K+ channel): 118.9
- hERG IC20/TLR9 IC50 (hERG K+ channel): 21.2

- IC50 (TLR9): 0.42 µM
Compound: Cc1cc(N2CCC(c3ncc(N4CCNCC4)cc3C)CC2)c2cnn(C)c2n1 [Example 7, 1,6-dimethyl-4-[4-(3-methyl-5-piperazin-1-yl-2-pyridyl)-1-piperidyl]pyrazolo[3,4-b]pyridine]
- IC50 (hERG K+ channel): > 20 µM
- IC20 (hERG K+ channel): 5.1 µM
- hERG IC20/TLR7 IC50 (hERG K+ channel): 463.6
- hERG IC20/TLR8 IC50 (hERG K+ channel): 175.9
- hERG IC20/TLR9 IC50 (hERG K+ channel): 98.1

Compound: Cc1cc(N2CCC(c3cnc(N4CCNCC4)nc3C)CC2)c2cnn(C)c2n1 [Example 11, 1,6-dimethyl-4-[4-(4-methyl-2-piperazin-1-yl-pyrimidin-5-yl)-1-piperidyl]pyrazolo[3,4-b]pyridine]
- IC50 (hERG K+ channel): > 20 µM
- IC20 (hERG K+ channel): 7.5 µM
- hERG IC20/TLR7 IC50 (hERG K+ channel): 202.7
- hERG IC20/TLR8 IC50 (hERG K+ channel): 178.6
- hERG IC20/TLR9 IC50 (hERG K+ channel): 72.1

- IC50 (TLR9): 0.34 µM
Compound: COc1cc(N2CCNCC2)cnc1C1CCN(c2cc(C)nc3c2cnn3C)CC1 [Example 14, 4-[4-(3-methoxy-5-piperazin-1-yl-2-pyridyl)-1-piperidyl]-1,6-dimethyl-pyrazolo[3,4-b]pyridine]

- IC50 (TLR9): 0.38 µM
Compound: Cc1cc(N2CC[C@@H](c3ncc(N4CC5(CNCCO5)C4)cc3C)[C@H](C)C2)c2cnn(C)c2n1 [Example 27, 2-[6-[(3S,4R)-1-(1,6-dimethylpyrazolo[3,4-b]pyridin-4-yl)-3-methyl-4-piperidyl]-5-methyl-3-pyridyl]-5-oxa-2,8-diazaspiro[3.5]nonane]

- IC50 (TLR9): 0.41 µM
Compound: Cc1cc(N2CC[C@@H](c3ncc(N4CC[C@@H](N)[C@H](F)C4)cc3C)[C@H](C)C2)c2cnn(C)c2n1 [Example 31, (3R,4R)-1-[6-[(3S,4R)-1-(1,6-dimethylpyrazolo[3,4-b]pyridin-4-yl)-3-methyl-4-piperidyl]-5-methyl-3-pyridyl]-3-fluoro-piperidin-4-amine]

Compound: CO[C@@H]1CN(c2ccc([C@H]3CCN(c4cc(C)nc5c4cnn5C)C[C@@H]3C)nc2)C[C@H]1N [Example 36, (3R,4R)-1-[6-[(3R,4S)-1-(1,6-dimethylpyrazolo[3,4-b]pyridin-4-yl)-3-methyl-4-piperidyl]-3-pyridyl]-4-methoxy-pyrrolidin-3-amine]
- IC50 (hERG K+ channel): > 20 µM
- IC20 (hERG K+ channel): > 10 µM
- hERG IC20/TLR7 IC50 (hERG K+ channel): >555.6
- hERG IC20/TLR8 IC50 (hERG K+ channel): >476.2
- hERG IC20/TLR9 IC50 (hERG K+ channel): >58.8

Compound: COC[C@H]1CN(c2ccc([C@H]3CCN(c4cc(C)nc5c4cnn5C)C[C@@H]3C)nc2)CCN1 [Example 37, 4-[(3R,4S)-4-[5-[(3R)-3-(methoxymethyl)piperazin-1-yl]-2-pyridyl]-3-methyl-1-piperidyl]-1,6-dimethyl-pyrazolo[3,4-b]pyridine]
- IC50 (hERG K+ channel): > 20 µM
- IC20 (hERG K+ channel): > 10 µM
- hERG IC20/TLR7 IC50 (hERG K+ channel): >1111.1
- hERG IC20/TLR8 IC50 (hERG K+ channel): >769.2
- hERG IC20/TLR9 IC50 (hERG K+ channel): >30.1

Compound: Cc1cc(N2CC[C@H](c3ccc(N4CC5(CNCCO5)C4)cn3)[C@@H](C)C2)c2cnn(C)c2n1 [Example 38, 2-[6-[(3R,4S)-1-(1,6-dimethylpyrazolo[3,4-b]pyridin-4-yl)-3-methyl-4-piperidyl]-3-pyridyl]-5-oxa-2,8-diazaspiro[3.5]nonane]
- IC50 (hERG K+ channel): > 20 µM
- IC20 (hERG K+ channel): 5.2 µM
- hERG IC20/TLR7 IC50 (hERG K+ channel): 400.0
- hERG IC20/TLR8 IC50 (hERG K+ channel): 472.7
- hERG IC20/TLR9 IC50 (hERG K+ channel): 27.1
